For 17 compounds, GI50 and IC50 results are on record in US20260250289A1, “BICYCLIC HETEROCYCLES AND THEIR USE AS WRN INHIBITORS” (Novartis AG, priority 2022, published 2026).

The test system of one experiment is DLD1-WRN-KO cells. The experiment is described as follows: Proliferation assay DLD1-WRN-KO (CellTiterGlo, off-target effects). In kind it is cell-based. The settings on record: 96 hours, geometric mean of at least 2. The method in brief:
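DLD1 cells with CRISPR knockout of WRN were exposed overnight-seeded to eight 3-fold compound dilutions (0.1% DMSO) for 96 h at 37 °C. Viability was read as ATP by CellTiterGlo luminescence against a day-0 plate, giving GI50 and residual viability at top concentration.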
A general note: ATP-based viability assays read luminescence as a measure of living cells.

The next experiment has as its system SW48 cells. The experiment is described as follows: Proliferation assay SW48 (CellTiterGlo). The experiment is classed as cell-based. The settings on record: Homo sapiens, SW48, 96 h, SW48 colon carcinoma cells, 96 hours, CellTiterGlo; geometric mean of at least 2; read-out: Proliferation Assay SW48 GI50. The method in brief: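 Read-out is CellTiterGlo luminescence after 96 hours of compound exposure, with % growth calculated against day-0 and vehicle-treated ATP levels. SW48 seeded at 2,000 cells/well, dosed next day with eight 3-fold serial dilutions, 0.1% DMSO. GI50 reported as geometric mean, at least 2 replicates.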

For experiment [1], the target named is T1, WRN helicase (aa N517-P1238) (Homo sapiens, UniProt Q14191).
T1 construct: The core helicase motif of the WRN protein (aa N517-P1238) was produced for this assay; His (N); ZZ (N); 3C protease cleavage site (N); made in house; host or cells: Sf21 insect cells (baculovirus; virus and BIICs made in SF9)
T1 sequence (Q14191 517-1238): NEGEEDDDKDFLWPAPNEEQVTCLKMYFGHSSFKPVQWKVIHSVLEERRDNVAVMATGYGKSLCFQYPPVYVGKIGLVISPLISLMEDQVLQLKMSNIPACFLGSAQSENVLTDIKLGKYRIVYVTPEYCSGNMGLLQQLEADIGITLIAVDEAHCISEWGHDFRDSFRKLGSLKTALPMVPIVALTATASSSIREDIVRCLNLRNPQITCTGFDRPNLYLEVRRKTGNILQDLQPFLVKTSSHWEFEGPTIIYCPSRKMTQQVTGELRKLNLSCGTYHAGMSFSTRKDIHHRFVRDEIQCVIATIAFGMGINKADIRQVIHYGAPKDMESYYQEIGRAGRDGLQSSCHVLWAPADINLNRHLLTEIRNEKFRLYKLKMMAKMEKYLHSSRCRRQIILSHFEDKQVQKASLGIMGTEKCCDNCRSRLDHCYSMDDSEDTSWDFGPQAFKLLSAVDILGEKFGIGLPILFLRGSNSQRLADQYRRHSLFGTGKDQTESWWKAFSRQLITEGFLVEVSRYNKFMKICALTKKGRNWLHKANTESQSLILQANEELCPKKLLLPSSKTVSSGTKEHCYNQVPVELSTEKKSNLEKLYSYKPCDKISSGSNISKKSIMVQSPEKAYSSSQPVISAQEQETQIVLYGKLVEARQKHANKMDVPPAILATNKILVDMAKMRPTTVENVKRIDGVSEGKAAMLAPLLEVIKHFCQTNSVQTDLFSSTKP
Briefly: WRN ATPase assay (DNA dependent ATP hydrolysis, ADP-Glo). The experiment is classed as biochemical. The settings on record: 3 hours pre-incubation, 300 micromolar ATP, FLAP26 DNA; geometric mean of at least 2. The method in brief: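 DNA-dependent ATP hydrolysis detected as ADP by ADP-Glo luminescence, using 300 μM ATP, 0.2 nM FLAP26 substrate and 10 nM WRN aa N517-P1238 (Tris pH 7.5 buffer, 2 mM MgCl2, 50 mM NaCl). IC50s fitted from normalized duplicate half-log dilutions; reported as geometric means of at least 2 replicates.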
In general terms: ADP-Glo first removes unused ATP, then detects ADP through luciferase.

A value given as a limit tells only on which side of the number the result lay.

With `CC(=O)N1CCN(c2c(C)n(CC(=O)Nc3cc(F)c(C(F)(F)F)cc3C)c3nc(C4=CCOCC4)nn3c2=O)CC1` [Example 83, 2-(6-(4-acetylpiperazin-1-yl)-2-(3,6-dihydro-2H-pyran-4-yl)-5-methyl-7-oxo-[1,2,4]triazolo[1,5-a]pyrimidin-4(7H)-yl)-N-(5-fluoro-2-methyl-4-(trifluoromethyl)phenyl)acetamide], the GI50 with DLD1-WRN-KO cells is over 10000 nM; in the experiment with SW48 cells, 2000 nM. In experiment [1], this compound displayed an IC50 of 300 nM.
Consider `CC(=O)N1CCN(c2c(C)n(CC(=O)Nc3ccc(C(F)(F)F)c(F)c3C)c3nc(C4=CCOCC4)nn3c2=O)CC1` [Example 84, 2-(6-(4-acetylpiperazin-1-yl)-2-(3,6-dihydro-2H-pyran-4-yl)-5-methyl-7-oxo-[1,2,4]triazolo[1,5-a]pyrimidin-4(7H)-yl)-N-(3-fluoro-2-methyl-4-(trifluoromethyl)phenyl)acetamide], for which the GI50 was over 10000 nM in the experiment with DLD1-WRN-KO cells and 1000 nM in the experiment with SW48 cells. The same compound came in with an IC50 in experiment [1] of 300 nM.
For `CC(=O)N1CCN(c2c(C)n(CC(=O)Nc3ccc(C(F)(F)F)cc3F)c3nc(C4=CCOCC4)nn3c2=O)CC1` [Example 85, 2-(6-(4-acetylpiperazin-1-yl)-2-(3,6-dihydro-2H-pyran-4-yl)-5-methyl-7-oxo-[1,2,4]triazolo[1,5-a]pyrimidin-4(7H)-yl)-N-(2-fluoro-4-(trifluoromethyl)phenyl)acetamide], the GI50 with DLD1-WRN-KO cells is over 10000 nM; in the experiment on SW48 cells it was 4000 nM. Besides, half-maximal inhibition in experiment [1] (IC50) required 500 nM.
`CC(=O)N1CCN(c2c(C)n(CC(=O)Nc3cc(Cl)c(C(F)(F)F)nc3C)c3nc(C4=CCOCC4)nn3c2=O)CC1` [Example 87, 2-(6-(4-acetylpiperazin-1-yl)-2-(3,6-dihydro-2H-pyran-4-yl)-5-methyl-7-oxo-[1,2,4]triazolo[1,5-a]pyrimidin-4(7H)-yl)-N-(5-chloro-2-methyl-6-(trifluoromethyl)pyridin-3-yl)acetamide]: the GI50 is over 10000 nM with DLD1-WRN-KO cells and 4000 nM with SW48 cells. Further, in experiment [1], the IC50 came out at 500 nM.
For `CCc1c(N2CCN(C(C)=O)CC2)c(=O)n2nc(C3=CCOCC3)nc2n1CC(=O)Nc1ccc(C(F)(F)F)cc1F` [Example 88, 2-(6-(4-acetylpiperazin-1-yl)-2-(3,6-dihydro-2H-pyran-4-yl)-5-ethyl-7-oxo-[1,2,4]triazolo[1,5-a]pyrimidin-4(7H)-yl)-N-(2-fluoro-4-(trifluoromethyl)phenyl)acetamide] the same measures were over 10000 nM, 3000 nM and 500 nM.
As for `CC(=O)N1CCN(c2c(C)n(CC(=O)Nc3cc(C)c(C(F)(F)F)cc3Cl)c3nc(C4=CCOCC4)nn3c2=O)CC1` [Example 89, 2-(6-(4-acetylpiperazin-1-yl)-2-(3,6-dihydro-2H-pyran-4-yl)-5-methyl-7-oxo-[1,2,4]triazolo[1,5-a]pyrimidin-4(7H)-yl)-N-(2-chloro-5-methyl-4-(trifluoromethyl)phenyl)acetamide], the GI50 in the experiment with DLD1-WRN-KO cells was over 10000 nM; in the experiment with SW48 cells, 3000 nM. The same compound gave an IC50 in experiment [1] of 600 nM.
Consider `CC(=O)N1CCN(c2c(C)n(CC(=O)Nc3ccc(C(F)(F)F)c(F)c3)c3nc(C4=CCOCC4)nn3c2=O)CC1` [Example 90, 2-(6-(4-acetylpiperazin-1-yl)-2-(3,6-dihydro-2H-pyran-4-yl)-5-methyl-7-oxo-[1,2,4]triazolo[1,5-a]pyrimidin-4(7H)-yl)-N-(3-fluoro-4-(trifluoromethyl)phenyl)acetamide], for which the GI50 was over 10000 nM with DLD1-WRN-KO cells and 4000 nM in the experiment on SW48 cells. It took 600 nM to reach half-maximal inhibition in experiment [1] (IC50).
Regarding `CC(=O)N1CCN(c2c(C)n(CC(=O)Nc3cc(F)c(C(F)(F)F)cc3Cl)c3nc(C4=CCOCC4)nn3c2=O)CC1` [Example 91, 2-(6-(4-acetylpiperazin-1-yl)-2-(3,6-dihydro-2H-pyran-4-yl)-5-methyl-7-oxo-[1,2,4]triazolo[1,5-a]pyrimidin-4(7H)-yl)-N-(2-chloro-5-fluoro-4-(trifluoromethyl)phenyl)acetamide], the GI50 in the experiment with DLD1-WRN-KO cells was over 10000 nM; in the experiment on SW48 cells, 3000 nM. Besides, in experiment [1], the IC50 was found to be 700 nM.
For `CCc1ccc(NC(=O)Cn2c(C)c(N3CCN(C(C)=O)CC3)c(=O)n3nc(C4=CCOCC4)nc23)cc1F` [Example 92, 2-(6-(4-acetylpiperazin-1-yl)-2-(3,6-dihydro-2H-pyran-4-yl)-5-methyl-7-oxo-[1,2,4]triazolo[1,5-a]pyrimidin-4(7H)-yl)-N-(4-ethyl-3-fluorophenyl)acetamide] the same measures were over 10000 nM, 4000 nM and 700 nM.
For `CC(=O)N1CCN(c2c(C)n(CC(=O)Nc3cc(F)c(C(F)F)cc3C)c3nc(C4=CCOCC4)nn3c2=O)CC1` [Example 94, 2-(6-(4-acetylpiperazin-1-yl)-2-(3,6-dihydro-2H-pyran-4-yl)-5-methyl-7-oxo-[1,2,4]triazolo[1,5-a]pyrimidin-4(7H)-yl)-N-(4-(difluoromethyl)-5-fluoro-2-methylphenyl)acetamide] the same measures were over 10000 nM, 3000 nM and 700 nM.
Take `CC(=O)N1CCN(c2c(C)n(CC(=O)Nc3ccc(C(F)(F)F)cc3)c3nc(-c4ccc(CN(C)C(=O)OC(C)(C)C)cc4)nn3c2=O)CC1` [Example 95, tert-butyl (4-(6-(4-acetylpiperazin-1-yl)-5-methyl-7-oxo-4-(2-oxo-2-((4-(trifluoromethyl)phenyl)amino)ethyl)-4,7-dihydro-[1,2,4]triazolo[1,5-a]pyrimidin-2-yl)benzyl)(methyl)carbamate]: the GI50 in the experiment with DLD1-WRN-KO cells is over 10000 nM; in the experiment with SW48 cells, 2000 nM. The same compound had an IC50 in experiment [1] of 800 nM.
Turning to `CC(=O)N1CCN(c2c(C)n(CC(=O)Nc3c(C)cc(C(F)(F)F)cc3Cl)c3nc(C4=CCOCC4)nn3c2=O)CC1` [Example 96, 2-(6-(4-acetylpiperazin-1-yl)-2-(3,6-dihydro-2H-pyran-4-yl)-5-methyl-7-oxo-[1,2,4]triazolo[1,5-a]pyrimidin-4(7H)-yl)-N-(2-chloro-6-methyl-4-(trifluoromethyl)phenyl)acetamide], the GI50 in the experiment on DLD1-WRN-KO cells was over 10000 nM; in the experiment on SW48 cells, 3000 nM. This compound also returned an IC50 in experiment [1] of 800 nM.
As to `CC(=O)N1CCN(c2c(C)n(CC(=O)Nc3cc(F)c(Cl)cc3Cl)c3nc(C4=CCOCC4)nn3c2=O)CC1` [Example 97, 2-(6-(4-acetylpiperazin-1-yl)-2-(3,6-dihydro-2H-pyran-4-yl)-5-methyl-7-oxo-[1,2,4]triazolo[1,5-a]pyrimidin-4(7H)-yl)-N-(2,4-dichloro-5-fluorophenyl)acetamide], the GI50 is over 10000 nM with DLD1-WRN-KO cells and 4000 nM with SW48 cells. This compound gave an IC50 in experiment [1] of 1000 nM.
Regarding `CC(=O)N1CCN(c2c(C)n(CC(=O)Nc3ccc(C(F)(F)F)nc3Cl)c3nc(C4=CCOCC4)nn3c2=O)CC1` [Example 98, 2-(6-(4-acetylpiperazin-1-yl)-2-(3,6-dihydro-2H-pyran-4-yl)-5-methyl-7-oxo-[1,2,4]triazolo[1,5-a]pyrimidin-4(7H)-yl)-N-(2-chloro-6-(trifluoromethyl)pyridin-3-yl)acetamide], the GI50 with DLD1-WRN-KO cells was over 10000 nM; in the experiment on SW48 cells, 6000 nM. In experiment [1], this compound showed an IC50 of 1000 nM.
For `CC(=O)N1CCN(c2c(C)n(CC(=O)Nc3cnc(C(F)(F)F)cc3Cl)c3nc(C4=CCOCC4)nn3c2=O)CC1` [Example 99, 2-(6-(4-acetylpiperazin-1-yl)-2-(3,6-dihydro-2H-pyran-4-yl)-5-methyl-7-oxo-[1,2,4]triazolo[1,5-a]pyrimidin-4(7H)-yl)-N-(4-chloro-6-(trifluoromethyl)pyridin-3-yl)acetamide] the same measures were over 10000 nM, 6000 nM and 2000 nM.
Regarding `CC(=O)N1CCN(c2c(C)n(CC(=O)Nc3cc(Cl)c(C)cc3Cl)c3nc(C4=CCOCC4)nn3c2=O)CC1` [Example 100, 2-(6-(4-acetylpiperazin-1-yl)-2-(3,6-dihydro-2H-pyran-4-yl)-5-methyl-7-oxo-[1,2,4]triazolo[1,5-a]pyrimidin-4(7H)-yl)-N-(2,5-dichloro-4-methylphenyl)acetamide], the GI50 in the experiment with DLD1-WRN-KO cells is over 10000 nM; with SW48 cells it was 4000 nM. Further, the IC50 in experiment [1] is 2000 nM.
For `CC(=O)N1CCN(c2c(C)n(CC(=O)Nc3cc(F)c(C(F)(F)F)nc3Cl)c3nc(C4=CCOCC4)nn3c2=O)CC1` [Example 101, 2-(6-(4-acetylpiperazin-1-yl)-2-(3,6-dihydro-2H-pyran-4-yl)-5-methyl-7-oxo-[1,2,4]triazolo[1,5-a]pyrimidin-4(7H)-yl)-N-(2-chloro-5-fluoro-6-(trifluoromethyl)pyridin-3-yl)acetamide] the same measures were over 10000 nM, 10000 nM and 2000 nM.

What is called IC50 is the midpoint of a concentration-inhibition curve.
